# Measurements taken from ChEMBL document CHEMBL3098064, “Sortase A inhibitory metabolites from the roots of Pulsatilla koreana” (Bioorg Med Chem Lett, 2014).
# Test: Inhibition of Streptococcus mutans OMZ65 recombinant sortase A delta-40 mutant using Dabcyl-QALPETGEE-Edans as substrate after 1 hr by fluorescence spectrophotometry
row,Compound,IC50 [µM]
1,COc1cc([C@H]2Oc3c(OC)cc(CCCO[C@@H]4O[C@H](CO)[C@@H](O)[C@H](O)[C@H]4O)cc3[C@H]2CO)ccc1O,37.3
2,COc1cc([C@H]2Oc3c(OC)cc(CCCO)cc3[C@H]2CO[C@@H]2O[C@H](CO)[C@@H](O)[C@H](O)[C@H]2O)ccc1O,82.8
3,COc1cc(C[C@@H]2COC(=O)[C@@]2(Cc2ccc(O)c(OC)c2)O[C@@H]2O[C@H](CO)[C@@H](O)[C@H](O)[C@H]2O)ccc1O,41.2
4,O=C(/C=C/c1ccc(O)c(O)c1)O[C@@H](Cc1ccc(O)c(O)c1)C(=O)O,20.1
5,CO[C@@H](Cc1ccc(O)cc1)C(=O)O,> 100
6,COc1cc(C[C@@H]2COC(=O)[C@]2(O)Cc2ccc(O)c(OC)c2)ccc1O,> 100
7,COc1cc([C@H]2Oc3c(OC)cc(CCCO)cc3[C@H]2CO)ccc1O,35.9
8,O=C(/C=C/c1ccc(O)c(O)c1)O[C@H](C(=O)O)[C@@H](OC(=O)/C=C/c1ccc(O)c(O)c1)C(=O)O,60
9,COc1cc([C@@H]2OC[C@@H]3[C@H]2CO[C@H]3c2ccc(O)c(OC)c2)ccc1O [(+)-PINORESINOL],67.7
10,O=C(O)/C=C/c1ccc(O)c(O)c1 [CAFFEIC ACID],20.2
11,COc1cc(/C=C/C(=O)O)ccc1O [FERULATE],> 100
12,COc1cc(C[C@H]2COC(=O)[C@@H]2Cc2ccc(O)c(OC)c2)ccc1O [MATAIRESINOL],> 100
13,Para-Hydroxymercuribenzoic acid,35.1
